Source: patent US20060167106A1, “Compounds acting at the centrosome” (priority 2004, published 2006)
Entries after “also recorded” stand apart in the source; their conditions may differ. Each block holds one compound with its values, some of them ahead of it. Non-standard residues stand in square brackets, D forms with d. Residues, ends and D or L forms follow the SMILES beside them. *: point of attachment. Nle = CCCC[C@H](N)C(=O)O; Nva = CCC[C@H](N)C(=O)O; Cbz = O=C(OCc1ccccc1)*

Legend:
CHO-α-tubulin-YFP cells = assay: α-tubulin-YFP localization in CHO-α-tubulin-YFP cells (fluorescence imaging); type: cell-based, Chinese hamster; settings: for accumulation of α-tubulin-YFP at the centrosomes: 5 hours; for accumulation of tubulin in the centrosomes (overall statement): CHO-tubulin-YFP cells, concentration and time not given; for accumulation of tubulin at the centrosomes versus in the nucleus (overall statement): cells treated, concentration not given
From the text: Wild-type Chinese Hamster Ovary cells (WT CHO) cells were maintained in Ham's F-12 medium supplemented with 10% fetal bovine serum (FBS; HyClone, Logan, Utah). Cells of low density (˜20%) growing on 2-well chambered cover-slips (Labtek (Campbell, Calif.) or Fisher Scientific) were transfected with a mammalian expression vector encoding α-tubulin-YFP (Clontech, Palo Alto, Calif.) with the use of FuGENE 6 (Roche Molecular Biochemicals, Indianapolis, Ind.), according to the manufacturer's instructions. Twenty-four hours after transfection, the cells were cultured in 400 μg/ml G418 (Invitrogen, Carlsbad, Calif.)-containing selection medium for 2 weeks. Living cells were examined using a fluorescent microscope for α-tubulin-YFP expression. Cells in single colonies containing microtubules labeled with α-tubulin-YFP were lifted and expanded in G418-containing medium. Expression of α-tubulin-YFP was confirmed by the presence of the tubulin-YFP labeled microtubule pattern identical to immunostained microtubule pattern of non-transfected cells, as well as by subjecting the cells to Western blot analysis using an anti-GFP antibody (Roche Molecular Biochemicals, Basel, Switzerland) and confirming the correct mass of the α-tubulin-YFP chimera protein. Expressed tubulin-YFP was detected as a single band in Western blots. The tubulin-YFP expressing cell lines (referred as CHO-α-tubulin-YFP cells) were used in the studies.
CHO-α-tubulin-YFP cells were cultured in 2-well chambered cover-slips (Labtek (Campbell, Calif.) or Fisher Scientific) 24 hours before treatment. For comparison of the centrosomal effects of treatment with Compound 1, Compound 1+Taxol, and Taxol, CHO-α-tubulin-YFP cells were treated with Compound 1, Compound 1+Taxol, Taxol, or equivalent concentrations of DMSO-containing media for various time periods before imaging. For comparison of the effects of Compound 1 and known proteasome inhibitors on centrosomes, the nucleus, and perinuclear regions, CHO-α-tubulin-YFP cells were treated with Compound 1, ALLN (Calbiochem, San Diego, Calif.), lactacystin (Calbiochem, San Diego, Calif.) or MG132 (Calbiochem, San Diego, Calif.), and imaged at various time points from 3 hours to 24 hours after treatment.
Tubulin-YFP fluorescence in living cells or fixed cells was captured using a standard filter for FITC and objectives of 20× or 60× magnification on a Nikon TE300 microscope with a Leica DC50 color digital camera (Leica, Bannockburn, Ill.) or a CoolSnap HQ Monochrome CCD camera (Photonetrics, Tucson, Ariz.). The Leica DC50 and CoolSnapHQ cameras were controlled with Leica DC50 software and MetaVue/MetaMorph software, respectively (Universal Imaging Corp, Downingtown, Pa.).
CHO-α-tubulin-YFP cells were cultured in 2-well chambered cover-slips (Labtek (Campbell, Calif.) or Fisher Scientific) 24 hours before treatment. For comparison of effects on the centrosome, nucleus, and perinuclear regions, cells were treated with Compound 1 and known proteasome inhibitors including ALLN, MG132, Lactacystin, MG115, clasto-Lactacystin β-Lactone (cLβL), and Epoxomicin (10 μM final concentration for all except ALLN, which was used at 100 μM final concentration) (proteasome inhibitors were from Calbiochem, San Diego, Calif.) and imaged at various time points up to 24 hours during treatment.
Tubulin-YFP fluorescence in living cells or fixed cells was captured using a standard filter for FITC and objectives of 20× or 60× magnification on the Nikon TE300 microscope/digital imaging system.

[1] = target: T1, bovine red blood cell 20S proteasome (Bos taurus, UniProt Q32KL2); assay: 20S Proteasome Assay (in vitro, Suc-Leu-Val-Tyr-AMC); type: biochemical; settings: isolated 20S proteasome
T1 construct: bovine red blood cell 20S proteasome; purchased Calbiochem; host or cells: purified from bovine red blood cells
Description: 190 μl of reaction buffer (500 mM HEPES, 10 nM EDTA, pH 7.6), containing 0.03% SDS was pre-incubated for 5 minutes at 37° C. in the presence of 0.2 μg of bovine red blood cell 20S proteasome (Calbiochem, San Diego, Calif.) for temperature equilibration. Subsequently, inhibitors or Compound 1 were added to the reaction mixture at a final DMSO concentration of 0.5%. The reaction was initiated by adding 10 μl of the peptide-AMC substrate (Calbiochem, San Diego, Calif.) to each well. The emitted fluorescence was then measured every third minute at 37° C. for 90 minutes by a fluorescence plate reader (FlexStation II, Molecular Devices, Sunnyvale, Calif.) at 460 nm (λex360 nm) wavelength.
The buffers and reagents for the assay were purchased from Calbiochem (20S Proteasome Assay Kit; Calbiochem, San Diego, Calif.). The principle of the assay is that the release of free AMC (7-Amino-4-methylcoumarin) following degradation of the substrate results in a fluorescent signal that is a measure of proteasome activity. The quantitative analysis of 20S proteasome activity was assayed as described.

Hsp70 = Hsp70 Western blotting in MDA-435 cells; type: cell-based; settings: 0.5 μM; for percentage change in Hsp70 expression relative to DMSO control: normalized to background and GAPDH
Description: Calculations of the percentage changes were made by using the automated band analysis tools of the Kodak 1D (v.3.6.3) program. Band intensities were normalized to background and GAPDH.
MDA-435 breast cancer cells were grown in 100 mm plastic-tissue culture dishes and treated for 6 and 24 hours with 0.5 μM Taxol, Compound 1, Taxol+Compound 1, MG132, ALLN, or DMSO. After treatment, cells were washed in PBS and cell lysates were prepared by adding 100 μL of lysis buffer, which contained 20 mM Tris-HCl (pH 7.5), 150 mM NaCl, 1 mM Na2EDTA, 1 mM EGTA, 1% Triton, 2.5 mM sodium pyrophosphate, 1 mM β-glycerophosphate, 1 mM Na3VO4 and 1 μg/ml leupeptin (Cell Signaling Technology, Beverly, Mass.) supplemented with 1 mM PMSF (Sigma, St. Louis, Mo.) immediately before use, on ice for 1 hour. After scraping, the lysates were cleared by centrifugation at 13,000 RPM for 10 minutes at 4° C. Protein content was determined using a Bradford assay and bovine serum albumin as a standard (Bio-Rad Laboratories, Hercules, Calif.). Samples were solubilized by boiling in SDS sample buffer and subjected to SDS-PAGE. The proteins were subsequently transferred to a PVDF membrane (Bio-Rad, Hercules, Calif.). After blocking with 5% nonfat milk in TBS for 1 hour, the blots were incubated with a mouse monoclonal anti-Hsp70 antibody, which is specific for the inducible form of Hsp70 (Clone C92F3A-5, 1:1000 dilution, Stressgen Biotechnologies Corp., Victoria, B.C., Canada) or a rabbit polyclonal anti-GAPDH antibody (1:2000 dilution, Abcam, Cambridge, Mass.) for 2 hours at room temperature. The horseradish-peroxidase-conjugated secondary antibodies, anti-mouse horse radish peroxidase, (1:2000, Bio-Rad, Hercules, Calif.) and goat anti-rabbit polyclonal horse radish peroxidase (1:2000, Abcam, Cambridge, Mass.)) were diluted in blocking buffer and incubated with the blot for 1 hour at room temperature. The secondary antibodies were detected by enhanced chemiluminescence (ECL, Amersham Biosciences, Piscataway, N.J.) and imaged using a Kodak 440 Image Station.

26S proteasome = assay: Proteasome-sensor cells (HEK-293, GFP chimera), fluorescence imaging; type: cell-based; settings: HEK-293, 0.5 μM, 24 hours
From the text: Specifically, the proteasome-sensor cells are HEK-293 cells stably transfected with a vector (proteasome-sensor vector) that encodes naturally-occurring reef coral Zoanthus sp. green fluorescent protein (GFP) fused to a specific degradation motif that targets the fusion protein for removal by the 26S proteasome. The background fluorescence observed in normal cells with active proteasomes is low. When proteasomes are inhibited, the fluorescent protein quickly accumulates. […] Millennium Pharmaceuticals, Inc., Cambridge, Mass.). […] Velcade (Millennium Pharmaceuticals Inc.) was used as a positive control in this assay (at 5 nM, 50 nM, 500 nM or 5 μM). Velcade stock solution was prepared according to the manufacturer's instructions. GFP fluorescence of the cells was imaged at various time points using a standard filter for FITC with the Nikon TE300 microscope/digital imaging system described herein.

[2] = CHO cells, 10 μM, 8 hours post-treatment

- proteasome inhibitory activity in vitro (overall statement) [1]: exhibited proteasome inhibitory activity
Compound: CCCC[C@@H](C=O)NC(=O)[C@H](CC(C)C)NC(=O)[C@H](CC(C)C)NC(C)=O [ALLN] (Ac-Leu-Leu-[Nle]-aldehyde)
- accumulation of α-tubulin-YFP at the centrosomes (CHO-α-tubulin-YFP cells; CHO cells, 100 μM): accumulation of α-tubulin-YFP at the centrosomes and perinuclear regions
- accumulation of YFP-tubulin in the nucleus (CHO-α-tubulin-YFP cells; CHO cells, 100 μM, 8 hours post-treatment): caused the accumulation of YFP-tubulin in the nucleus
- accumulation of tubulin-YFP at the centrosomes (CHO-α-tubulin-YFP cells; CHO cells, 100 μM, 24 hours): accumulation of tubulin-YFP at the centrosomes
- accumulation of tubulin in the centrosomes (overall statement) (CHO-α-tubulin-YFP cells): caused accumulation of tubulin-YFP at the centrosomes and in the perinuclear region
- accumulation of tubulin at the centrosomes versus in the nucleus (overall statement) (CHO-α-tubulin-YFP cells): both accumulation of tubulin at the centrosomes and in the nucleus
- induction of Hsp70 expression (Hsp70; 6 and 24 hours): unable to induce expression of Hsp70; also recorded: not capable of inducing Hsp70 expression
- percentage change in Hsp70 expression relative to DMSO control (Hsp70; 6 hours of treatment): 82%
- percentage change in Hsp70 expression relative to DMSO control (Hsp70; 24 hours of treatment): 137%

Compound: CN(NC(=O)CC(=O)NN(C)C(=S)c1ccccc1)C(=S)c1ccccc1 [Compound 2]
- proteasome inhibitory activity in vitro ([1]; 50 μM): neither Compound 1 nor its salt form, Compound 2, displayed significant proteasome inhibitory activity
- accumulation of proteasome-sensor protein in cells (26S proteasome): accumulation of proteasome-sensor protein in cells

Compound: CN(NC(=O)CC(=O)NN(C)C(=S)c1ccccc1)C(=O)c1ccccc1 [Compound 3]
- accumulation of tubulin-YFP at the centrosomes (CHO-α-tubulin-YFP cells; CHO cells, 5 μM, 4 hours): lack of accumulation of tubulin-YFP at the centrosomes

Compound: Cc1cc(NC(=O)C(=O)c2cc(Cc3ccc(C#N)cc3)n3ccccc23)sn1 [Compound 4]
- accumulation of tubulin-YFP at the centrosomes (CHO-α-tubulin-YFP cells; CHO cells, 10 μM, 24 hours): lack of accumulation of tubulin-YFP at the centrosomes

Compound: C/C1=C/C[C@@H](/C(C)=C/c2csc(C)n2)OC(=O)C[C@H](O)C(C)(C)C(=O)[C@H](C)[C@@H](O)[C@@H](C)CCC1 [Epothilone D]
- accumulation of tubulin-YFP at the centrosomes (CHO-α-tubulin-YFP cells; CHO cells, 10 μM, 24 hours): lack of accumulation of tubulin-YFP at the centrosomes

Compound: CC[C@H](C)[C@H](NC(=O)[C@H]([C@@H](C)CC)N(C)C(C)=O)C(=O)N[C@H](C(=O)N[C@@H](CC(C)C)C(=O)[C@@]1(C)CO1)[C@@H](C)O [Epoxomicin]
- accumulation of α-tubulin-YFP in the nucleus (CHO-α-tubulin-YFP cells; [2]): accumulation of α-tubulin-YFP in the nucleus; also recorded: caused the accumulation of YFP-tubulin in the nucleus
- accumulation of tubulin at the centrosomes versus in the nucleus (overall statement) (CHO-α-tubulin-YFP cells): both accumulation of tubulin at the centrosomes and in the nucleus

- proteasome inhibitory activity in vitro (overall statement) [1]: exhibited proteasome inhibitory activity
Compound: CC(=O)N[C@@H](CSC(=O)[C@]1([C@@H](O)C(C)C)NC(=O)[C@H](C)[C@@H]1O)C(=O)O [Lactacystin]
- accumulation of α-tubulin-YFP at the centrosomes (CHO-α-tubulin-YFP cells; CHO cells, 10 μM): accumulation of α-tubulin-YFP at the centrosomes and perinuclear regions
- accumulation of α-tubulin-YFP in the nucleus (CHO-α-tubulin-YFP cells; [2]): accumulation of α-tubulin-YFP in the nucleus; also recorded: caused the accumulation of YFP-tubulin in the nucleus
- accumulation of tubulin-YFP at the centrosomes (CHO-α-tubulin-YFP cells; CHO cells, 10 μM, 24 hours): accumulation of tubulin-YFP at the centrosomes
- accumulation of tubulin in the centrosomes (overall statement) (CHO-α-tubulin-YFP cells): caused accumulation of tubulin-YFP at the centrosomes and in the perinuclear region
- accumulation of tubulin at the centrosomes versus in the nucleus (overall statement) (CHO-α-tubulin-YFP cells): both accumulation of tubulin at the centrosomes and in the nucleus
- proteasome activity in vitro ([1]; 5 nM): detectable decrease in proteasome activity

Compound: CCC[C@@H](C=O)NC(=O)[C@H](CC(C)C)NC(=O)[C@H](CC(C)C)NC(=O)OCc1ccccc1 [MG115] (Cbz-Leu-Leu-[Nva]-aldehyde)
- accumulation of α-tubulin-YFP in the nucleus (CHO-α-tubulin-YFP cells; [2]): caused the accumulation of YFP-tubulin in the nucleus
- accumulation of α-tubulin-YFP in the nucleus (CHO-α-tubulin-YFP cells; CHO cells, 10 μM, 8 hours post-treatment, listed as MG-115): accumulation of α-tubulin-YFP in the nucleus
- accumulation of tubulin at the centrosomes versus in the nucleus (overall statement) (CHO-α-tubulin-YFP cells): both accumulation of tubulin at the centrosomes and in the nucleus

Compound: CC[C@]1(O)C[C@H]2CN(CCc3c([nH]c4ccccc34)[C@@](C(=O)OC)(c3cc4c(cc3OC)N(C=O)[C@H]3[C@@](O)(C(=O)OC)[C@H](OC(C)=O)[C@]5(CC)C=CCN6CC[C@]43[C@@H]65)C2)C1 [Vincristine]
- accumulation of tubulin-YFP at the centrosomes (CHO-α-tubulin-YFP cells; CHO cells, 1 μM, 24 hours): lack of accumulation of tubulin-YFP at the centrosomes

Compound: CC(C)[C@H](O)[C@@]12NC(=O)[C@H](C)[C@@H]1OC2=O [clasto-Lactacystin β-Lactone]
- accumulation of α-tubulin-YFP in the nucleus (CHO-α-tubulin-YFP cells; [2]): accumulation of α-tubulin-YFP in the nucleus; also recorded: caused the accumulation of YFP-tubulin in the nucleus
- accumulation of tubulin at the centrosomes versus in the nucleus (overall statement) (CHO-α-tubulin-YFP cells): both accumulation of tubulin at the centrosomes and in the nucleus
